Experimental data published in PubChem BioAssay AID1963873 (Molecular Pharmacology Branch, DTP, NCI, 2024).

Tested on: 276233-004-R-J1-PDC KRAS spheroids with HUVEC/MSC, viability
Experiment: Anticancer human tumor 276233-004-R-J1-PDC patient-derived colon adenocarcinoma cell line growth inhibition [KRAS2]
Conditions: for IC50: curve of first compound; for viability, T/C: stronger effect = lower value
Summary of the method: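 Combination screen of spheroid viability in tumor-cell co-cultures with endothelial (HUVEC) and mesenchymal stem cell stroma. Each agent was tested in half-log dilutions, topping at clinical Cmax or at 10 microM without a known Cmax.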

[1] = second compound 0.1 µM, first compound 0.0316 µM
[2] = second compound 0.1 µM, first compound 0.1 µM
[3] = second compound 0.1 µM, first compound 0.316 µM
[4] = second compound 0.1 µM, first compound 1 µM
[5] = second compound 0.1 µM, first compound 3.16 µM
[6] = second compound 0.1 µM, first compound 10 µM
[7] = second compound 0.316 µM, first compound 0.0316 µM
[8] = second compound 0.316 µM, first compound 0.1 µM
[9] = second compound 0.316 µM, first compound 0.316 µM
[10] = second compound 0.316 µM, first compound 1 µM
[11] = second compound 0.316 µM, first compound 3.16 µM
[12] = second compound 0.316 µM, first compound 10 µM
[13] = second compound 1 µM, first compound 0.0316 µM
[14] = second compound 1 µM, first compound 0.1 µM
[15] = second compound 1 µM, first compound 0.316 µM
[16] = second compound 1 µM, first compound 1 µM
[17] = second compound 1 µM, first compound 3.16 µM
[18] = second compound 1 µM, first compound 10 µM
[19] = second compound 3.16 µM, first compound 0.0316 µM
[20] = second compound 3.16 µM, first compound 0.1 µM
[21] = second compound 3.16 µM, first compound 0.316 µM
[22] = second compound 3.16 µM, first compound 1 µM
[23] = second compound 3.16 µM, first compound 3.16 µM
[24] = second compound 3.16 µM, first compound 10 µM
[25] = second compound 10 µM, first compound 0.0316 µM
[26] = second compound 10 µM, first compound 0.1 µM
[27] = second compound 10 µM, first compound 0.316 µM
[28] = second compound 10 µM, first compound 1 µM
[29] = second compound 10 µM, first compound 3.16 µM
[30] = second compound 10 µM, first compound 10 µM
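Further: cells exposed to agents for seven days before viability read.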
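Wherever viability, T/C is given: 100% = DMSO vehicle control wells and lower values mean fewer viable cells.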

SMILES: Cn1nccc1Nc1nccc(-c2cc3c(s2)C(C)(C)N(CCN2CCOCC2)C3=O)n1 + CNCc1ccccc1-c1csc(C(C)Nc2nc(C)nc3cc(OC)c(OC)cc23)c1
- IC50 (second compound 0.1 µM): 7.27 µM
- IC50 (second compound 0.316 µM): > 10 µM
- IC50 (second compound 1 µM): 1.06 µM
- IC50 (second compound 3.16 µM): < 0.0316 µM
- IC50 (second compound 10 µM): < 0.0316 µM
- viability, T/C [1]: 107%
- viability, T/C [2]: 91.7%
- viability, T/C [3]: 80.2%
- viability, T/C [4]: 81.6%
- viability, T/C [5]: 49.3%
- viability, T/C [6]: 49.4%
- viability, T/C [7]: 115%
- viability, T/C [8]: 89.9%
- viability, T/C [9]: 94.2%
- viability, T/C [10]: 79.3%
- viability, T/C [11]: 50.1%
- viability, T/C [12]: 60.2%
- viability, T/C [13]: 86%
- viability, T/C [14]: 83.1%
- viability, T/C [15]: 68%
- viability, T/C [16]: 52.4%
- viability, T/C [17]: 27.3%
- viability, T/C [18]: 6.69%
- viability, T/C [19]: 3.02%
- viability, T/C [20]: 2.17%
- viability, T/C [21]: 2.97%
- viability, T/C [22]: 3.66%
- viability, T/C [23]: 1.05%
- viability, T/C [24]: 0.59%
- viability, T/C [25]: 2.67%
- viability, T/C [26]: 2.95%
- viability, T/C [27]: 1.94%
- viability, T/C [28]: 1.75%
- viability, T/C [29]: 1.4%
- viability, T/C [30]: 0.24%

SMILES: O=C(c1cc(Cc2n[nH]c(=O)c3ccccc23)ccc1F)N1CCN(C(=O)C2CC2)CC1 + C=CC(=O)N1CCN(c2nc(=O)n(-c3c(C)ccnc3C(C)C)c3nc(-c4c(O)cccc4F)c(F)cc23)C(C)C1
- IC50 (second compound 0.1 µM): > 10 µM
- IC50 (second compound 0.316 µM): > 10 µM
- IC50 (second compound 1 µM): > 10 µM
- IC50 (second compound 3.16 µM): > 10 µM
- IC50 (second compound 10 µM): > 10 µM
- viability, T/C [1]: 83.6%
- viability, T/C [2]: 96%
- viability, T/C [3]: 78.6%
- viability, T/C [4]: 110%
- viability, T/C [5]: 82.6%
- viability, T/C [6]: 71.8%
- viability, T/C [7]: 103%
- viability, T/C [8]: 103%
- viability, T/C [9]: 108%
- viability, T/C [10]: 99%
- viability, T/C [11]: 105%
- viability, T/C [12]: 87.9%
- viability, T/C [13]: 121%
- viability, T/C [14]: 105%
- viability, T/C [15]: 98.7%
- viability, T/C [16]: 82.9%
- viability, T/C [17]: 98.9%
- viability, T/C [18]: 99.4%
- viability, T/C [19]: 86.4%
- viability, T/C [20]: 98.1%
- viability, T/C [21]: 82.5%
- viability, T/C [22]: 103%
- viability, T/C [23]: 85.2%
- viability, T/C [24]: 89.8%
- viability, T/C [25]: 84.1%
- viability, T/C [26]: 83.5%
- viability, T/C [27]: 83.2%
- viability, T/C [28]: 73.5%
- viability, T/C [29]: 78.2%
- viability, T/C [30]: 77.8%

SMILES: CC1(C)CCC(CN2CCN(c3ccc(C(=O)NS(=O)(=O)c4ccc(NCC5CCOCC5)c([N+](=O)[O-])c4)c(Oc4cnc5[nH]ccc5c4)c3)CC2)=C(c2ccc(Cl)cc2)C1 + C=CC(=O)N1CCN(c2nc(OCC3CCCN3C)nc3c2CCN(c2cccc4cccc(C)c24)C3)CC1CC#N
- IC50 (second compound 0.0316 µM): > 10 µM
- IC50 (second compound 0.1 µM): > 10 µM
- IC50 (second compound 0.316 µM): 8.09 µM
- IC50 (second compound 1 µM): 3.05 µM
- IC50 (second compound 3.16 µM): < 0.0316 µM
- viability, T/C (second compound 0.0316 µM, first compound 0.0316 µM): 90.7%
- viability, T/C (second compound 0.0316 µM, first compound 0.1 µM): 102%
- viability, T/C (second compound 0.0316 µM, first compound 0.316 µM): 113%
- viability, T/C (second compound 0.0316 µM, first compound 1 µM): 94.4%
- viability, T/C (second compound 0.0316 µM, first compound 3.16 µM): 88%
- viability, T/C (second compound 0.0316 µM, first compound 10 µM): 56%
- viability, T/C [1]: 80.3%
- viability, T/C [2]: 113%
- viability, T/C [3]: 85.5%
- viability, T/C [4]: 86.2%
- viability, T/C [5]: 96.6%
- viability, T/C [6]: 61.4%
- viability, T/C [7]: 102%
- viability, T/C [8]: 89%
- viability, T/C [9]: 87.1%
- viability, T/C [10]: 126%
- viability, T/C [11]: 82.1%
- viability, T/C [12]: 42.7%
- viability, T/C [13]: 83.7%
- viability, T/C [14]: 111%
- viability, T/C [15]: 90.5%
- viability, T/C [16]: 100%
- viability, T/C [17]: 48.4%
- viability, T/C [18]: 22.1%
- viability, T/C [19]: 47.6%
- viability, T/C [20]: 42.6%
- viability, T/C [21]: 41.9%
- viability, T/C [22]: 23.2%
- viability, T/C [23]: 0.96%
- viability, T/C [24]: 0.77%

SMILES: COC(=O)c1ccc2c(C(=Nc3ccc(N(C)C(=O)CN4CCN(C)CC4)cc3)c3ccccc3)c(O)[nH]c2c1 + C=CC(=O)N1CCN(c2nc(=O)n(-c3c(C)ccnc3C(C)C)c3nc(-c4c(O)cccc4F)c(F)cc23)C(C)C1
- IC50 (second compound 0.1 µM): > 10 µM
- IC50 (second compound 0.316 µM): > 10 µM
- IC50 (second compound 1 µM): > 10 µM
- IC50 (second compound 3.16 µM): > 10 µM
- IC50 (second compound 10 µM): 3.36 µM
- viability, T/C [1]: 104%
- viability, T/C [2]: 72.4%
- viability, T/C [3]: 71.5%
- viability, T/C [4]: 92.8%
- viability, T/C [5]: 91.8%
- viability, T/C [6]: 97.2%
- viability, T/C [7]: 105%
- viability, T/C [8]: 80.5%
- viability, T/C [9]: 90%
- viability, T/C [10]: 83%
- viability, T/C [11]: 91.1%
- viability, T/C [12]: 92.3%
- viability, T/C [13]: 106%
- viability, T/C [14]: 87.5%
- viability, T/C [15]: 64.8%
- viability, T/C [16]: 96.7%
- viability, T/C [17]: 96%
- viability, T/C [18]: 88.3%
- viability, T/C [19]: 93.9%
- viability, T/C [20]: 78.1%
- viability, T/C [21]: 81.1%
- viability, T/C [22]: 63.3%
- viability, T/C [23]: 89.5%
- viability, T/C [24]: 95.5%
- viability, T/C [25]: 78.2%
- viability, T/C [26]: 73.2%
- viability, T/C [27]: 61.2%
- viability, T/C [28]: 82.2%
- viability, T/C [29]: 51.8%
- viability, T/C [30]: 16.8%
